Publication PMC3870039 (ACS chemical biology, 2013)

Target: human topoisomerase IIα (Homo sapiens, UniProt P11388)
Assay: competition against DNA cleavage induced by […] 8-methyl-3′-
Type: biochemical

Chain of human topoisomerase IIα (P11388 whole entry): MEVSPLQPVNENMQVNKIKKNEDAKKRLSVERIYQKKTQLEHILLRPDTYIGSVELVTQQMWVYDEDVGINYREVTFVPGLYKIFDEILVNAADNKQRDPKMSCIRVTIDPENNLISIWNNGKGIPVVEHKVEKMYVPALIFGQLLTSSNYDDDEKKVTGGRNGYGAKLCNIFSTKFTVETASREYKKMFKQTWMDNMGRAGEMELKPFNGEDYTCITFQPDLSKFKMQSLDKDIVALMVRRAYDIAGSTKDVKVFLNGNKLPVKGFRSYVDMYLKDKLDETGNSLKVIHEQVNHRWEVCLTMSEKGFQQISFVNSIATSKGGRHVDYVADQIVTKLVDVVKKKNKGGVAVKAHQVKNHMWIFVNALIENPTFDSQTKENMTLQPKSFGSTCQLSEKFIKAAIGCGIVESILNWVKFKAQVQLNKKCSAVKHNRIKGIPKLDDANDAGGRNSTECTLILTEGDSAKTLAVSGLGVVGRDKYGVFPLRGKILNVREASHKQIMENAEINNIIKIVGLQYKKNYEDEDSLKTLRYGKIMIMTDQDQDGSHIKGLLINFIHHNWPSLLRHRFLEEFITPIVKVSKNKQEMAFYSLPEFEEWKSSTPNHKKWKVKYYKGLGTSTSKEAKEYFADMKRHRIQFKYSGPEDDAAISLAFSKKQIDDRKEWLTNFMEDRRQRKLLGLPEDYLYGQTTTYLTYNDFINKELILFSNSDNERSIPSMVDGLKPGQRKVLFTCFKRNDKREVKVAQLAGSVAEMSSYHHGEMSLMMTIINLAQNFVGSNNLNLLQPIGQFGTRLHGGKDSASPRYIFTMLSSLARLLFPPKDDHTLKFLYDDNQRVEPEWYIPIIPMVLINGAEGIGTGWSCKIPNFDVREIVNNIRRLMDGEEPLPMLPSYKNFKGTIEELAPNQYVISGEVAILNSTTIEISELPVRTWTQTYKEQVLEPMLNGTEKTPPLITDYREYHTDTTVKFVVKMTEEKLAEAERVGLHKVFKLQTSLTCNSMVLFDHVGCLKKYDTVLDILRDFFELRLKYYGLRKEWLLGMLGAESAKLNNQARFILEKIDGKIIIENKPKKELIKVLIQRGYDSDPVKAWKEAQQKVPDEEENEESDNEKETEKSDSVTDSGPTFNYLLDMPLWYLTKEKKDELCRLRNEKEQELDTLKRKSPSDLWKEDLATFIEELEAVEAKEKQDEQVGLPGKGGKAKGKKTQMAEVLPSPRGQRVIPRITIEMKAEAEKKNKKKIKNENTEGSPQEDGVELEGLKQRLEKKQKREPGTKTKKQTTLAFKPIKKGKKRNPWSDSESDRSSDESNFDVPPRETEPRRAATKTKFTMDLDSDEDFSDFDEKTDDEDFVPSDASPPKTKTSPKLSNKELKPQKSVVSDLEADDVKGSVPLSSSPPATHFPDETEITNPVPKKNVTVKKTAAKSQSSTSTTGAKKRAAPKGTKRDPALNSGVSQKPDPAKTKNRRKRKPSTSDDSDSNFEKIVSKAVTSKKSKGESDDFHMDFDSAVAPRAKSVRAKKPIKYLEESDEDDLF

NCC1CCN(c2cc3c(cc2F)c(=O)c(C(=O)O)cn3C2CC2)C1 (stereo not shown) [8-H-3′-(AM)P-FQ]
IC50: ~50 µM
